One may read the MIC as the least concentration at which growth counts as inhibited.

This passage reports MIC results from ChEMBL document CHEMBL6074642, “Natural and Bioinspired Lipidic Alkynylcarbinols as Leishmanicidal, Antiplasmodial, Trypanocidal, Fungicidal, Antibacterial, and Antimycobacterial Agents” (J Nat Prod, 2024).

The assay has as its system Mycobacterium tuberculosis. Briefly: Antibacterial activity against multi-drug resistant Mycobacterium tuberculosis assessed as reduction in microbial growth. The class given is functional.

As to `C=C[C@@H](O)C#CC#C[C@@H](O)/C=C\CCCCCCC` [FALCARINDIOL], the MIC worked out at 32 µg/mL.
